What all share (format): functional
Test [1] deals with Jurkat. The test can be described thus: Antiproliferative activity against human Jurkat cells assessed as proliferation index at 10 uM after 24 hrs using CFSE staining by flow cytometry relative to original parent cells (reference value: 2.48). A general note: In flow cytometry, cells or beads pass a laser one at a time.
Test [2] relates to Jurkat. As to the kind of experiment: Antiproliferative activity against human Jurkat cells assessed as non proliferative fraction at 10 uM after 24 hrs using CFSE staining by flow cytometry (reference value: 0.59).
In test [3] the test system is Jurkat. As to the kind of experiment: Antiproliferative activity against human Jurkat cells assessed as parent population at 10 uM after 24 hrs using CFSE staining by flow cytometry (reference value: 23.70 %).
The test system of test [4] is Jurkat. As to the kind of experiment: Antiproliferative activity against human Jurkat cells assessed as 2nd generation cell population at 10 uM after 24 hrs using CFSE staining by flow cytometry relative to control.
In test [5] the test system is Jurkat. The test can be described thus: Antiproliferative activity against human Jurkat cells assessed as proliferation index of >/= 3rd generation cells at 10 uM after 24 hrs using CFSE staining by flow cytometry relative to original parent cells.
For test [6], the system named is Jurkat. The test can be described thus: Antiproliferative activity against human Jurkat cells assessed as 5th generation cell population at 10 uM after 24 hrs using CFSE staining by flow cytometry (reference value: 18.43 %).
For test [7], the system named is Jurkat. As to the kind of experiment: Antiproliferative activity against human Jurkat cells assessed as 4th generation cell population at 10 uM after 24 hrs using CFSE staining by flow cytometry (reference value: 25. 99 %).
Test [8] deals with Jurkat. The test can be described thus: Inhibition of cell division in human Jurkat cells at 1 uM.
The subject of test [9] is Jurkat. The test can be described thus: Antiproliferative activity against human Jurkat cells assessed as 3rd generation cell population at 10 uM after 24 hrs using CFSE staining by flow cytometry relative to control.

The term inhibition denotes how much of the control response was suppressed.

Each structure is given as a SMILES string.

For `CC1(C)OC1CCCc1cc(O)ccc1O` (stereo unspecified), the Ratio with Jurkat [1] was 1.11; in the test with Jurkat [2] it was 0.94; in the test with Jurkat [5], 4.76. In addition, the results for the Activity in the test with Jurkat [3] and with Jurkat [4] were 84.84% and 7.31%, respectively.

Take `C[C@@H](CC[C@H]1OC1(C)C)c1cc(O)ccc1O` (relative stereo): the Ratio is reported as 6.47 in the test with Jurkat [1], 0.39 in the test with Jurkat [2] and 10.81 in the test on Jurkat [5]. The figures for the Activity in the test on Jurkat [3] and in the test on Jurkat [6] were 6.02% and 64.37%, respectively.

Regarding `Cc1ccc([C@@H](C)CC[C@H]2OC2(C)C)c(O)c1` (relative stereo), the Ratio in the test on Jurkat [1] amounted to 4.77; in the test with Jurkat [2] it was 0.41; with Jurkat [5], 9.67. Further, the values for the Activity with Jurkat [3] and in the test with Jurkat [6] were 8.71% and 38.84%, respectively.

As for `Cc1ccc([C@H](C)CC[C@H]2OC2(C)C)c(O)c1` (relative stereo), the values for the Ratio in the test with Jurkat [1], in the test on Jurkat [2] and in the test on Jurkat [5] were 5.2, 0.42 and 10.46, respectively. Besides, the figures for the Activity in the test on Jurkat [3] and in the test on Jurkat [6] were 8.09% and 49.3%, respectively.

For the compound `CC[C@@H](CC[C@H]1OC1(C)C)c1ccccc1O` (relative stereo), the Ratio in the test with Jurkat [1] is on record as 4.1; in the test with Jurkat [2], 0.48; in the test on Jurkat [5], 8.5. Also, the Activity in the test on Jurkat [3] is on record as 11.75%; in the test on Jurkat [6], 29.37%.

With `CC[C@H](CC[C@H]1OC1(C)C)c1ccccc1O` (relative stereo), the results for the Ratio with Jurkat [1], in the test on Jurkat [2] and in the test with Jurkat [5] were 4.38, 0.46 and 9.29, respectively. Further, the Activity came out at 10.46% in the test with Jurkat [3] and 33.67% in the test on Jurkat [6].

On to `Cc1ccc([C@H](C)CC[C@@H]2CO2)c(O)c1` (relative stereo), for which the results for the Ratio in the test on Jurkat [1], in the test with Jurkat [2] and in the test with Jurkat [5] were 5.86, 0.37 and 10.07, respectively. Besides, the Activity with Jurkat [3] was 6.23%; in the test on Jurkat [6], 47.87%.

Regarding `Cc1ccc([C@@H](C)CC[C@@H]2CO2)c(O)c1` (relative stereo), the Ratio is 5.71 in the test on Jurkat [1], 0.3 in the test on Jurkat [2] and 9.25 with Jurkat [5]. The Activity with Jurkat [3] is 5.27%; in the test on Jurkat [6], 40.06%.

In the case of `CC[C@@H](CC[C@@H]1CO1)c1cc(O)ccc1O` (relative stereo), the Ratio is 5.06 with Jurkat [1], 0.4 in the test on Jurkat [2] and 10.11 in the test with Jurkat [5]. Besides, the Activity is reported as 7.95% in the test with Jurkat [3] and 48.54% with Jurkat [6].

As to `CC[C@H](CC[C@@H]1CO1)c1cc(O)ccc1O` (relative stereo), the Ratio is recorded as 5.01 in the test with Jurkat [1], 0.42 in the test on Jurkat [2] and 10.24 with Jurkat [5]. Besides, the values for the Activity with Jurkat [3] and in the test on Jurkat [6] were 8.46% and 47.67%, respectively.

On to `CC[C@H](CC[C@@H](C)O)c1ccccc1O` (relative stereo), for which the Ratio in the test on Jurkat [1] is 6.11; with Jurkat [2] it was 0.32; in the test with Jurkat [5] it was 10.18. The Activity in the test with Jurkat [3] is on record as 5.19%; in the test with Jurkat [6], 46.79%.

For `Cc1cc(O)c([C@H](C)CC[C@H]2OC2(C)C)cc1O` (relative stereo), the Ratio is recorded as 1.62 in the test with Jurkat [1], 0.87 in the test with Jurkat [2] and 8.05 in the test with Jurkat [5]. Further, the figures for the Activity in the test with Jurkat [3] and in the test with Jurkat [7] were 53.81% and 13.9%, respectively. Besides, the inhibition at 1 µM with Jurkat [8] worked out at 100%.

Turning to `Cc1cc(O)c([C@@H](C)CC[C@H]2OC2(C)C)cc1O` (relative stereo), the Ratio in the test with Jurkat [1] stood at 1.36; in the test with Jurkat [2] it was 0.92; in the test on Jurkat [5], 6.14. The Activity in the test with Jurkat [3] is 67.44%; in the test on Jurkat [9], 17.04%. In addition, the inhibition at 1 µM with Jurkat [8] worked out at 100%.

Turning to `CC[C@H](CC[C@H]1OC1(C)C)c1cc(O)ccc1O` (relative stereo), the Ratio in the test on Jurkat [1] is 2.73; in the test with Jurkat [2], 0.59; in the test with Jurkat [5], 6.16. Besides, the Activity stood at 21.49% in the test on Jurkat [3], 13.9% in the test on Jurkat [7], 35.78% with Jurkat [9] and 11.8% in the test on Jurkat [6].

As for `CC[C@@H](CC[C@H]1OC1(C)C)c1cc(O)ccc1O` (relative stereo), the figures for the Ratio in the test with Jurkat [1], in the test on Jurkat [2] and with Jurkat [5] were 3.04, 0.62 and 7.93, respectively. In addition, the Activity with Jurkat [3] was determined as 20.3%; in the test on Jurkat [7], 20.47%; in the test on Jurkat [9], 21.3%; with Jurkat [6], 18.48%.

On to `Cc1cc(O)c([C@H](C)CC[C@@H]2CO2)cc1O` (relative stereo), for which the Ratio with Jurkat [1] amounted to 1.85; in the test with Jurkat [2] it was 0.86; in the test with Jurkat [5], 7.64. Also, the Activity worked out at 46.39% in the test with Jurkat [3] and 18.91% with Jurkat [6].

Take `Cc1cc(O)c([C@@H](C)CC[C@@H]2CO2)cc1O` (relative stereo): the Ratio with Jurkat [1] turned out to be 1.09; in the test on Jurkat [2], 0.98; with Jurkat [5], 5.7. The Activity with Jurkat [3] worked out at 89.59%; in the test on Jurkat [9] it was 6.73%.
